Laboratory results taken from patent US20130095122A1, “Peptides or Antibodies Which Bind to Melanoma Inhibitory Activity (MIA) Protein” (priority 2010, published 2013).

Assays:
MIA protein dimer = target: T1, MIA protein dimer (Homo sapiens, UniProt Q16674); assay: Western blot analysis of MIA dimer bands; type: biochemical; settings: MIA preincubated with 1 μM peptide (FIG. 2B)
T1 construct: made in house; host or cells: cell-free Rapid Translation System RTS 500 E. coli HY Disulfite Kit (Roche)
T1 sequence (Q16674 25-131): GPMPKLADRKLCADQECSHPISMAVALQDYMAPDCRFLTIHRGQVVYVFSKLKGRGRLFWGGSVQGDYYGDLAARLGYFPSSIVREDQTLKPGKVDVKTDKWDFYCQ
Description: Protein samples were denaturated at 70° C. for 10 min after addition of reducing and denaturing Roti-Load buffer (Roth, Karlsruhe, Germany) and subsequently separated on sodium dodecyl sulfate 12.75% polyacrylamid gels (SDS-PAGE) (Invitrogen, Groningen, The Netherlands). In the multimerization studies, MIA protein (1 μg) was incubated with AR71 (2.5 μg) overnight at RT before being treated as described above. After transferring the proteins onto a polyvinylidene fluoride (PVDF) membrane (BioRad, Richmond, Va., USA), the membrane was blocked using 3% BSA/PBS for 1 h at RT and incubated with a 1:150 dilution of primary polyclonal rabbit anti MIA antibody (Biogenes, Berlin, Germany) in 3% BSA/PBS overnight at 4° C. After washing in PBS the membrane was incubated with a 1:2000 dilution of an […] coupled secondary antibody (Chemikon, Hofheim, Germany) for 2 h at RT. Finally, after washing steps, immunoreactions were visualized by nitro blue tetrazolium/5-bromo-4-chloro-3-indolyl phosphate (NBT/BCIP) (Invitrogen, Karlsruhe, Germany) staining.

Mel Im melanoma cells = assay: Boyden chamber invasion assay (MIA activity); type: cell-based, human
Description: Invasion assays were performed in Boyden Chambers containing polycarbonate filters with 8-μm pore size (Neuro Probe, Gaithersburg, Md., USA) essentially as described previously.^13 Filters were coated with matrigel, a commercially available reconstituted basement membrane (diluted 1:3 in H2O; BD Bioscience, Bradford, Mass., USA). The lower compartment was filled with fibroblast-conditioned medium used as a chemo attractant. Mel Im melanoma cells were harvested by trypsinization for 2 min at RT, resuspended in DMEM without FCS at a density 2.5×10^4 cells/mL, and placed in the upper compartment of the chamber. Except for the control experiment with untreated cells and experiments where cells were only treated with the respective peptide, MIA was added to the cell suspension at a final concentration of 200 ng/mL. Peptide AR71 (sequence: Ac-FHWRYPLPLPGQ-NH2) was used at a final concentration of 1 μM. MIA expressing murine B16 melanoma cells stably co-transfected with Sig-AR71-HisTag containing pCMX-PL1 vector^27 and an antibiotic resistance comprising plasmid (pCDNA3), and the respective mock control were also investigated for their ability to migrate. Therefore, cells were harvested by trypsinization for 2 min at RT, resuspended in DMEM without FCS at a density 2.5×10^4 cells/mL, and placed in the upper compartment of the chamber. After incubation at 37° C. for 4 h filters were removed. Cells adhering to the lower surface of the filter were fixed, stained, and counted. Experiments were carried out in triplicates and repeated at least three times.

MIA = target: T2, MIA (Homo sapiens, UniProt Q16674); assay: NMR titration of 15N-labeled MIA with peptide; type: binding; settings: unlabeled peptide, increasing amounts
T2 sequence (Q16674 25-131): T1 sequence (Q16674 25-131)
Description: All spectra were recorded at 300 K and pH 7 on a Bruker DRX600 spectrometer equipped with a pulsed field gradient triple resonance probe. Water suppression in experiments recorded on samples in H2O was achieved by incorporation of a Watergate sequence into the various pulse sequences.^28-30 2D ^1H-^15N HSQC spectra with reduced signal loss due to fast exchanging protons were recorded using procedures described previously.^31 All spectra were processed with NMRPipe and analyzed with NMRView.^32-33 Data handling was performed with NMRView. Structure visualisation and superimpositions were done with PyMol (Delano, W. L., The PyMol Molecular Graphics System (2002) Delano Scientific, Palo Alto, Calif., USA).
The NMR titration of MIA with AR71 consisted of monitoring changes in chemical shifts and line widths of the backbone amide resonances of uniformly ^15N-enriched MIA samples as a function of ligand concentration.^34-37

[1] = system: murine B16 melanoma cells; assay: In vivo metastasis assay, Sig-AR71-HisTag expressing B16 clone injected into spleen; settings: mice injected with Sig-AR71-HisTag expressing clone
Description: To determine the effect of peptide AR71 on the metastatic potential of murine B16 melanoma cells in vivo, a previously developed mouse metastases model was used.^19 1×10^5 cells of the AR71-HisTag expressing B16 cell clone AR71-His K4 as well as the corresponding mock control cells were injected into the spleen of mice (n=8 for mock control cells as well as for AR71-HisTag K4 cells, respectively). After nine days, mice were sacrificed, the livers were resected and the number and size of visible black tumor nodules on the surface of the livers was noticed. Tissues were fixed in formalin and afterwards paraffin embedded sections were hematoxylin and eosin stained for histological analysis.
Nine days after injection of the cells into the spleen, the mice were sacrificed, the livers were resected and tissue sections were prepared. Here, the inventors used the stably transfected murine B16 melanoma cells with a Sig-AR71-HisTag containing construct. […] The interference of AR71-HisTag with MIA-MIA interaction was also confirmed in the HTFP assay using wells coated with MIA-biotin (data not shown). Subsequently, a Sig-AR71-HisTag clone as well as a corresponding mock control was injected into the spleen of C57B16 mice, respectively. […]

[2] = system: murine B16 melanoma cells; assay: In vivo metastasis assay, wt B16 cells injected into spleen, i.v. AR71 treatment; parameters: species or system mice; settings: i.v. 50 μg every 24 h
Description: Additionally, 1×10^5 wt mouse melanoma B16 cells suspended in a solution containing AR71 (1 mg/mL) and 0.9% NaCl, or NaCl alone for the control mice, respectively, were injected into the spleen of each animal (n=8 for treated mice, as well as for control without AR71). Peptide AR71 was injected i.v. (50 μg every 24 h). After nine days, the mice were sacrificed and the livers were excised. Following formalin fixation, tissues were embedded in paraffin. Afterwards, sections were prepared and stained using hematoxylin and eosin before being subjected to histological analysis.
Therefore, wild type murine B16 melanoma cells were injected into the spleen of C57B16 mice with the mice being subsequently treated with i.v. injections of AR71 (50 μg every 24 h). After nine days, the mice were sacrificed, the livers were resected and again tissue sections were prepared. […] Four representative histological liver sections (hematoxylin and eosin stained) of untreated and treated mice, respectively, are shown in FIG. 4E.

## Ac-FHWRYPLPLPGQ-NH2 [AR71, FHWRYPLPLPGQ]
MIA protein dimer
  reduction of MIA dimer bands: strong reduction of the dimer bands
Mel Im melanoma cells; MIA 200 ng/mL pre-incubated with peptide 1 μM, Mel Im cells (FIG. 2C)
  neutralization of the MIA effect on cell invasion: complete neutralization of the effect caused by MIA
Mel Im melanoma cells; peptide in absence of MIA, Mel Im cells
  migratory behaviour of cells treated with peptide alone: does not influence the migratory behaviour of melanoma cells
MIA
  binding of peptide to MIA (chemical shift perturbations): MIA binds to this peptide ligand
[1]
  adverse effects on other organs and tissues: No adverse effects
[2]; nine days
  adverse effects on other organs and tissues: no adverse effects on other organs and tissues were observed
[2]; nine days (FIG. 4D)
  average number of metastases in the liver compared to untreated control mice: significant reduction of the average number of metastases in the liver
